Several values for one entry are separate records, joined by “and”; a condition that tells them apart may be missing. Equal entries are not always repeated.
Legend:
[1] = tested on: low density lipoprotein cholesterol (LDLc); conditions: obese patients of Example 6 (FIG. 8)
Experimental: (§1) The compound was intravenously administered to each patient of a cohort (except for a placebo cohort) twice weekly for 26 days. Each of patients in the three non-placebo cohorts received either 0.1 mg/m^2 (cohort 1); 0.3 mg/m^2 (cohort 2); or 0.9 mg/m^2 (cohort 3) doses of the compound at the time of administration. The trial was conducted under the appropriate government and medical supervision.

thrombomodulin = experiment: Thrombomodulin levels in obese patients; assay type: in vivo, human; conditions: obese patients of Example 6 (FIG. 7)
Description: The expression of another cardiovascular risk marker, thrombomodulin, was examined in the patients described in Example 6. […] Similarly to Example 6, the reduction in thrombomodulin was independent of effects on metabolic parameters and body weight.

C-Reactive Protein (CRP) = experiment: Serum C-Reactive Protein in obese patients, intravenous twice weekly for 26 days; assay type: in vivo, human
Experimental: as §1

[2] = tested on: apolipoprotein(a) (apoLp(a)); experiment: Apolipoprotein(a) levels in obese patients; assay type: in vivo, human; conditions: obese patients of Example 6 (FIG. 9)
Description: The expression of another cardiovascular risk marker, apolipoprotein(a) (apoLp(a)), was examined in the patients described in Example 6. […] Similarly to Example 6, the reduction in apoLp(a) was independent of effects on body weight.

total cholesterol [3] = experiment: Total cholesterol in human subjects with elevated total cholesterol; assay type: in vivo; conditions: human subjects with initial fasting total cholesterol in excess of 180 mg/dl, twice weekly for four weeks, n=10, p=0.018 (FIG. 3)
Experimental: Human subjects with initial fasting total cholesterol levels in excess of 180 mg/dl were administered Compound A twice weekly for a total of four weeks of treatment.

total cholesterol [4] = experiment: Total cholesterol in rats after four weeks of treatment; assay type: in vivo; set-up: Total cholesterol levels, Mean: unit not given here; conditions: for Total cholesterol levels, Mean: vehicle mean 86.7
Experimental: Rats were administered 1 or 3 mg/kg fumagillol daily for a total of four weeks of treatment.

FGF-21 = experiment: R&D Systems Quantikine Mouse FGF-21 Immunoassay, plasma FGF-21 after ten days of treatment; assay type: in vivo
Description: In Table 1, animals #1.1, 1.2, 1.3, 2.1, 2.2 and 2.3 were vehicle-treated and animal #3.1, 3.2, 3.3, 4.1, 4.2 and 4.3 were ZGN-201-treated. Sample 3.1 was above the level of quantification.
FIG. 4 indicates the average (±SEM) plasma FGF-21 levels for all study groups.

PCSK9 = experiment: Liver mRNA levels of PCSK9 in treated mice; assay type: in vivo; conditions: C57BL/6 mice, at day 3 and after (FIG. 5)
Description: Liver mRNA levels of PCSK9 were examined in C57BL/6 mice treated with ZGN-201. FIG. 5 depicts the hepatic PCSK9 mRNA (% of vehicle control) vs. days of treatment with ZGN-201.

[5] = tested on: C57BL/6 mice conditioned on a high fat diet; experiment: Oral fumagillin in mice conditioned on a high fat diet (DIO); assay type: in vivo
Description: Oral administration of the MetAP2 inhibitor fumagillin causes an increase in circulating ketone bodies, as measured by concentration of beta hydroxybutyrate, which indicates an increase in the breakdown of stored fat and activation of ketogenesis.

[6] = 1 mg/kg po daily for four weeks
[7] = 3 mg/kg po daily for four weeks

With CO[C@@H]1[C@H](OC(=O)C=Cc2ccc(OCCN(C)C)cc2)CC[C@]2(CO2)[C@H]1[C@@]1(C)O[C@@H]1CC=C(C)C.O=C(O)C(=O)O [6-O-(4-dimethylaminoethoxyl)cinnamoyl fumagillol oxalate] as the compound, how does the LDL-c levels [1] read?
The LDL-c levels was “decreases”.

What about the thrombomodulin levels (thrombomodulin) of the same compound?
The thrombomodulin levels was “decreases”.

And the “subjects with elevated CRP concentrations (above 3.0 μg/ml) reduced to levels within the normal range” value (C-Reactive Protein (CRP); 0.9 mg/m^2 dose level, by the 26th day of treatment, p<0.01)?
The value was “six out of eight”.

And the “levels of C-Reactive Protein (CRP) in patients' serum” value (C-Reactive Protein (CRP); obese patients, iv twice weekly for 26 days, 0.1, 0.3 or 0.9 mg/m^2 (FIG. 6))?
Its value is “decrease”.

And the “apoLp(a) levels” value [2]?
Its value is “decreases”.

With CO[C@@H]1[C@H](OC(=O)C=Cc2ccc(OCCN(C)C)cc2)CC[C@]2(CO2)[C@H]1[C@@]1(C)O[C@@H]1CC=C(C)C [Compound A, O-(4-dimethylaminoethoxycinnamoyl)fumagillol] as the compound, how does the Total cholesterol levels (total cholesterol [3]) read?
The Total cholesterol levels was “reduced”.

What does the source list for CO[C@@H]1[C@H](O)CC[C@]2(CO2)[C@H]1[C@@]1(C)O[C@@H]1CC=C(C)C [Fumagillol, fumagillol]?
Total cholesterol levels, % of vehicle (total cholesterol [4]; [6]): 76.5%; Total cholesterol levels, Mean (total cholesterol [4]; [6]): 66.3; Total cholesterol levels, % of vehicle (total cholesterol [4]; [7]): 63.7%; Total cholesterol levels, Mean (total cholesterol [4]; [7]): 55.2

How did the “FGF-21 absolute numbers, Average of duplicates (single animals)” value (FGF-21; animals 3.1 to 4.3, one value per animal, listed as ZGN-201) turn out when CO[C@@H]1[C@H](OC(=O)/C=C/C=C/C=C/C=C/C(=O)O)CC[C@]2(CO2)[C@H]1[C@@]1(C)O[C@@H]1CC=C(C)C [fumagillin] was run?
The value was “AQL and 2248.25 pg/ml and 2514.66 pg/ml and 2166.60 pg/ml and 1194.64 pg/ml and 3597.58 pg/ml”.

What about the “FGF-21 MEAN of treated group” value (FGF-21; vehicle group mean 991.47) of the same compound?
Its value is 2344.34 pg/mL.

And the “hepatic PCSK9 mRNA (% of vehicle control)” value (PCSK9)?
The value was “reduced PCSK9 expression”.

And the “hydroxybutyrate concentration at longer time points” value ([5]; DIO C57BL/6 mice, diet admixture 1 mg/kg daily for 250 days (FIG. 1C))?
The value was “Increased hydroxybutyrate concentration persisted”.

What about the beta hydroxybutyrate concentrations ([5]; DIO C57BL/6 mice, oral gavage 0.3 or 3 mg/kg daily for 10 days (FIG. 1A)) of the same compound?
The beta hydroxybutyrate concentrations was “increase”.

What about the “free fatty acid concentration” value ([5]; DIO C57BL/6 mice, oral gavage 0.3 or 3 mg/kg daily for 10 days (FIG. 1B)) of the same compound?
Its value is “without an increase”.

What about the sensitivity to insulin ([5]; mice on a high fat diet) of the same compound?
The sensitivity to insulin was “normalizes”.

What about the “Fasted glucose and insulin levels, insulin-glucose product” value ([5]; mice on high fat diet, 1 mg/kg fumagillin, versus age-matched lean mice and untreated DIO mice (FIG. 2A-2C)) of the same compound?
The value was “more similar to that of age-matched lean mice than that of untreated mice on a high fat diet”.

Source: patent US20160166531A1, “METHODS AND COMPOSITIONS FOR TREATING CARDIOVASCULAR DISORDERS” (Zafgen, Inc., priority 2010, published 2016)
